Consider one molecule from US20140332384A1, “BIOMARKERS RELATED WITH A SUPRA-N[…] STATE OF SELENIUM AND DIAGNOSIS METHOD IN WHICH SAID […] IDENTIFIED” (UNIVERSIDAD DE SANTIAGO DE CHILE, priority 2011, published 2014).

This series in a line: Growth of rats based on their body weight. The settings on record: 10 weeks; for Final body weight: in g (unit assumed). As for the experimental part:
As illustrated in the various embodiments and examples provided herein, the protein pattern was obtained using blood plasma from Wistar rats, bred in three groups of 8 rats, 21 days of age (4 females and 4 males) each. […] The animals had free access to deionized water and received the respective diet ad libitum. […]
The animals were kept in stainless steel cages at a controlled temperature equal to 20° C., using 12 hours day/night cycles. After the experimental period (10 weeks), blood samples were collected from each animal by cardiac punction, using standard protocols in heparin tubes. The tubes were inverted 10 times, and immediately placed in an ice bath. The tubes were centrifuged at 1300 RCF at 4° C. during 10 minutes. The plasma was separated from the solids. The supernatant was transferred to a fresh centrifuge tube and was centrifuged at 2400 RCF at 4° C. for 15 minutes. Finally, plasma samples were stored at −80° C. until they were analysed.
The growth of rats for each group was controlled.

Where [1] appears, read: Sodium Selenate (1.5 μg) diet, females, average.
Setting [2] is: Sodium Selenate (1.5 μg) diet, females, individual rats.
Where [3] appears, read: Sodium Selenate (1.5 μg) diet, group average.
The mark [4] stands for this setting: Sodium Selenate (1.5 μg) diet, males, average.
Setting [5] is: Sodium Selenate (1.5 μg) diet, males, individual rats.
Where [6] appears, read: Sodium Selenate (1.9 μg) diet, females, average.
Setting [7] is: Sodium Selenate (1.9 μg) diet, females, individual rats.
The mark [8] stands for this setting: Sodium Selenate (1.9 μg) diet, group average.
Where [9] appears, read: Sodium Selenate (1.9 μg) diet, males, average.
Setting [10] is: Sodium Selenate (1.9 μg) diet, males, individual rats.

Where “and” joins values, the source holds several entries; their conditions need not be identical. Identical values can stand only once.

For the molecule `O=[Se](=O)(O)O` [Sodium Selenate, sodium selenate], the Delta body weight reads like this: under setting [1], 151.1; under setting [2], 141.6 and 135.5 and 139.3 and 187.8; under setting [3], 207.8; under setting [4], 264.6; under setting [5], 266.6 and 275.8 and 271.2 and 244.9; under setting [6], 161.2. The Delta body weight under setting [7] was 180.4 and 161.3 and 145.1 and 158.1; the Delta body weight under setting [8] is on record as 218.0; the Delta body weight under setting [9] turned out to be 274.8; the Delta body weight under setting [10] is 293.1 and 278.3 and 291.9 and 235.9. For the same molecule, the Final body weight by setting is: under setting [1], 199.5; under setting [2], 189.8 and 184.2 and 188.3 and 235.7; under setting [3], 256.7; under setting [4], 313.8; under setting [5], 316.8 and 326.3 and 318.5 and 293.5; under setting [6], 209.7. The Final body weight is 228.6 and 210 and 194.1 and 206 under setting [7]; 266.9 under setting [8]; 324 under setting [9]; 343.3 and 328.8 and 339.2 and 284.5 under setting [10].
